For one compound, IC50 results are on record in ChEMBL document CHEMBL4842393, “Targeting KRAS G12D Mutant for the Potential Treatment of Pancreatic Cancer” (ACS Med Chem Lett, 2021).

For the experiment, the target named is GTPase KRas (Homo sapiens, UniProt P01116, G12D). Kind of experiment: Displacement of Cy5-labelled tracer from biotinylated GDP-loaded human recombinant KRAS G12D mutant (1 to 169 residues) measured after 60 mins by TR-FRET assay. Background: Time-resolved FRET reads energy transfer from a long-lived donor to a nearby acceptor.

The term IC50 denotes the concentration needed to halve the response being measured. Regarding `Oc1cc(-c2ncc3c(N4CC5CCC(C4)N5)nc(OCC45CCCN4C(CF)CC5)nc3c2F)c2ccccc2c1` (stereo unspecified), the IC50 stood at 0.1 nM.
